{"source": "paper PMC5641551", "about": "“Chemical Proteomics for Target Discovery of Head-to-Tail Cyclized Mini-Proteins” (Frontiers in Chemistry, 2017)", "test_system": "Foxo3a transcriptional activity in HEK293 cells co-transfected with 14-3-3β", "assay": "Foxo3a luciferase reporter gene assay", "format": "cell-based, human", "protocol": "Jurkat cells were cultured in RPMI medium containing phenol red supplemented with 10% (v/v) heat deactivated fetal calf serum and 100 U/mL penicillin/streptomycin at 37°C in humidified atmosphere of 5% CO2. HEK293 cells were cultured in Dulbecco's modified eagle high glucose medium supplied with 10% fetal calf serum and 100 U per mL penicillin/streptomycin. Cell transfection was carried out by Jetprime® according to the manufacturer's recommendation (Polyplus, Illkirch, France).\nForkhead box protein 3a induced transcriptional activity was measured on transiently transfected HEK293 cells (5 × 10^4). The reporter plasmid encoding luciferase under the control of a promotor containing forkhead responsive elements and the human p-Foxo3a-HA plasmid were gifts of Michael Greenberg provided by the Addgene consortium (#1787 and #1789; Brunet et al., [1999]). The plasmids encoding the mouse p-14-3-3 beta-GST protein and the functional forkhead transcription factor were used in a 1.5-fold amount compared to the reporter construct. The transfection was completed after 6 h and the cells could recover for 4 h in growth medium. The cells were serum starved using 1% (v/v) fetal bovine serum in phenol red free DMEM medium supplemented with antibiotics overnight. After 4 h peptide and 24 h of fusicoccin-A treatment the luciferase assay was developed using luciferase development kit from Promega E151 (Wisconsin, United States) and the luminescence was measured on a synergy H4 plate reader (Biotek). Control compounds were the PI3K inhibitors wortmannin and LY294002 (both Sigma Aldrich). The recorded data were normalized to the non-treated control sample. Significance and IC50-values were calculated from at least two biological replicates using GraphPad Prism. Data analysis was performed by non-linear regression using a four parameter Hill equation.\nIf not stated in detail for the respective single experiment the statistical tests were performed using GraphPad Prism 5.04 (GraphPad, La Jolla, CA) using one-way ANOVA with Bonferonni or Dunnett's Post-hoc test. The number of technical and biological repeats was justified by analysis of error and reproducibility of results. Significance threshold P < 0.05 was applied to all experiments. For the data shown in Figure 3 three individuals for the in vivo experiments were used and each data point was performed in three technical replicates. The pull down experiments shown in Figures 4A,B were performed a single time and the data represent two technical repeats. Gel lanes were loaded with single (1x) or doubled (2x) amount of pull down proteins for better visibility. The data illustrated in Figures 4C,D were performed in two independent experiments. Silver stained gel lanes were evaluated by loading various amounts, and then the amount with optimized staining contrast was loaded and used for in-gel protein digestion. The pull down experiments shown in Figures 4E,F were performed a single time. The Western Blots and the pull down experiment shown in Figure 5 represent experiments in three and two independent experiments, respectively. Experiments in a well-based format (Figure 6) were performed with three technical and two biological replicates. All data illustrated in this manuscript show the mean ± standard deviation (SD) unless stated otherwise. The MS based protein identifications were performed in two technical analyses for each sample.\nFigure 6 Foxo3a luciferase reporter assay. The modulation of the Akt/PI3K/Foxo3a pathway by the cyclotide [T20K]kB1 binding to 14-3-3 proteins was investigated. HEK293 cells were transiently transfected with Foxo3a-Luc plasmid encoding luciferase under a promotor with Foxo response elements, Foxo3a and 14-3-3β. For control the reporter plasmid (basal value) was also co-transfected with the single functional effector proteins 14-3-3β or Foxo3a. Cells were treated under starving conditions with peptide or fusicoccin-A (FC-A) for 4 h or 24 h, respectively. […]", "note": "No end group written: not given here."}
{"sequence": "CGETCVGGTCNTPGCKCSWPVCTRNGLPV (also: bicyclic or more (positions not given here)) [[T20K]kB1, synthetic cyclotide drug candidate, Thr20 to Lys mutant of kalata B1]", "values": [{"measurement": "Foxo3a transcriptional activity, effect in words", "setting": "HEK293, luciferase reporter, PI3K inhibitors as controls, peptide 4 h", "value": "reduced the transcriptional activity of Foxo3a in a concentration-dependent manner"}, {"measurement": "IC50", "setting": "HEK293 transfected with Foxo3a-Luc, Foxo3a and 14-3-3β, peptide treatment 4 h, IC50 ± SD, two independent experiments, four parameter Hill fit, read-out: IC50, reduction of Foxo3a transcriptional activity (luciferase)", "value": "5.27 ± 0.25", "unit": "µM"}, {"measurement": "effect on 14-3-3/Foxo3a protein complex (suggested)", "setting": "inferred from decreased Foxo3a transcriptional activity in reporter assay", "value": "exerts a stabilizing effect on the 14-3-3/Foxo3a protein complex"}]}
